This note sets out measurements from ChEMBL document CHEMBL1125121, “Synthesis and activity of a potent N-methyl-D-aspartic acid agonist, trans-1-aminocyclobutane-1,3-dicarboxylic acid, and related phosphonic and carboxylic acids” (J Med Chem, 1990).

Common to all, as to type: functional
Experiment [1] addresses T1, Glutamate NMDA receptor (Rattus norvegicus) (UniProt P35439+Q00959+Q00960+Q00961+Q62645+Q8VHN2+Q9R1M7). Briefly: Depression of depolarizing response vs 10 uM N-methyl-D-aspartate glutamate receptor at the concentration of 500 uM; inactive.
Experiment [2] has as its target T1, Glutamate NMDA receptor (Rattus norvegicus). In words: Antagonistic activity against 10 uM of N-methyl-D-aspartate glutamate receptor at the concentration of 100 uM. On the set-up: scale not given: the % may be the effect or the level left.
Experiment [3] addresses T2, Glutamate receptor ionotropic, AMPA (Rattus norvegicus) (UniProt P19491+P19492+P19493+P19490). Briefly: Antagonistic activity against 5 uM of quis/AMPA at the concentration of 100 uM. Details: scale not given: the % may be the effect or the level left.
Experiment [4] has as its target T3, Glutamate receptor ionotropic, kainate (Rattus norvegicus) (UniProt P22756+Q01812+P42260+P42264+Q63273). Briefly: Antagonistic activity against Ionotropic glutamate receptor kainate at the concentration of 100 uM. Details: scale not given: the % may be the effect or the level left.
Experiment [5] addresses T2, Glutamate receptor ionotropic, AMPA (Rattus norvegicus). Briefly: Antagonistic activity against 5 uM of quis/AMPA at the concentration of 500 uM; ns = not significant.
Experiment [6] concerns the target T1, Glutamate NMDA receptor (Rattus norvegicus). In words: Antagonistic activity against 10 uM of N-methyl-D-aspartate glutamate receptor at the concentration of 500 uM; ns = not significant.
Experiment [7] deals with T3, Glutamate receptor ionotropic, kainate (Rattus norvegicus). In words: Antagonistic activity against Ionotropic glutamate receptor kainate at the concentration of 500 uM; ns = not significant.
Experiment [8] deals with T1, Glutamate NMDA receptor (Rattus norvegicus). In words: Depression of depolarizing response vs 10 uM N-methyl-D-aspartate glutamate receptor at the concentration of 500 uM.
For experiment [9] the target is unchanged. In words: Antagonistic activity against 10 uM of N-methyl-D-aspartate glutamate receptor at the concentration of 200 uM. Details: scale not given: the % may be the effect or the level left.
Experiment [10] shares this target. Briefly: Antagonistic activity against 10 uM of N-methyl-D-aspartate glutamate receptor at the concentration of 500 uM. Details: scale not given: the % may be the effect or the level left.
Experiment [11] deals with T2, Glutamate receptor ionotropic, AMPA (Rattus norvegicus). In words: Antagonistic activity against 5 uM of quis/AMPA at the concentration of 200 uM. Details: scale not given: the % may be the effect or the level left.
In experiment [12] the target is T3, Glutamate receptor ionotropic, kainate (Rattus norvegicus). In words: Antagonistic activity against Ionotropic glutamate receptor kainate at the concentration of 200 uM. On the set-up: scale not given: the % may be the effect or the level left.
For experiment [13] the target is unchanged. In words: Antagonistic activity against Ionotropic glutamate receptor kainate at the concentration of 200 uM; ns = not significant.
Experiment [14] deals with T1, Glutamate NMDA receptor (Rattus norvegicus). In words: Depression of depolarizing response vs 10 uM N-methyl-D-aspartate glutamate receptor at the concentration of 200 uM; inactive.
For experiment [15], the target named is T2, Glutamate receptor ionotropic, AMPA (Rattus norvegicus). In words: Antagonistic activity against 5 uM of quis/AMPA at the concentration of 200 uM; ns = not significant.

The structures appear in SMILES notation. Active and inactive are the calls of the source. The calls are words filed in the database; no cut-off is given here.

As to `NC1(C(=O)O)CC(=CP(=O)(O)O)C1` (configuration not stated), the result in experiment [1] was inactive. Moreover, the results for the Activity in experiment [2], in experiment [3] and in [4] were 40%, 30% and 25%, respectively.

Consider `N[C@]1(C(=O)O)C[C@H](CC(=O)O)C1`, for which the result in experiment [5], in experiment [6] and in [7] was inactive. The Activity in experiment [8] is 0.65.

Consider `N[C@]1(C(=O)O)C[C@@H](CC(=O)O)C1`, for which the results for the Activity in experiment [9] and in experiment [8] were 50% and 0.25, respectively.

Regarding `N[C@]1(C(=O)O)C[C@@H](CCCP(=O)(O)O)C1.N[C@]1(C(=O)O)C[C@H](CCCP(=O)(O)O)C1`, the Activity in experiment [10] stood at 50%. Further, the result in experiment [5], in [7] and in [1] was inactive.

Regarding `N[C@]1(C(=O)O)C[C@@H](CP(=O)(O)O)C1.N[C@]1(C(=O)O)C[C@H](CP(=O)(O)O)C1`, the result in experiment [1] was inactive. The Activity in experiment [11] stood at 25%; in experiment [9], 40%; in [12], 25%.

Molecule `N[C@]1(C(=O)O)C[C@@H](CP(=O)(O)O)C1` returned an Activity in experiment [9] of 40%. The outcome in experiment [13], in [14] and in experiment [15] was inactive.
